pIC50: −log10 of the molar value. Active and inactive are the calls of the source. The rule behind the calls is not given here.
Tests used:
Ishikawa [1] = test: Potentiation of tamoxifen-induced antiestrogenic activity in human Ishikawa cells assessed as decrease in tamoxifen IC50 at 2 ug/ml after 4 days by ELISA; assay type: functional, cell-based
[2] = target: Anti-estrogen binding site (Rattus norvegicus); test: Displacement of [3H]tamoxifen from antiestrogen binding site in Sprague-Dawley rat liver by liquid scintillation counting
Ishikawa [3] = test: Antiestrogenic activity in human Ishikawa cells assessed as inhibition of estrogen-induced alkaline phosphatase activity after 4 days by ELISA; settings: 96 h
Ishikawa [4] = test: Potentiation of tamoxifen-induced antiestrogenic activity in human Ishikawa cells assessed as decrease in tamoxifen IC50 at 1 ug/ml after 4 days by ELISA; assay type: functional, cell-based

Row | pIC50 [2] | pIC50 (Ishikawa [3]) | SMILES | Activity (Ishikawa [1]) | Activity (Ishikawa [4])
1 | 5.46 |  | CC(C)[C@@H]1CN(C2=CC[C@@]3(C)[C@@H](CC[C@@H]4[C@@H]3CC[C@]3(C)[C@@H]([C@H](C)N(C)C)[C@@H](O)C[C@@H]43)C2=O)C1=O | Active | 
2 | < 4.70 |  | C[C@@H]([C@H]1CC[C@H]2[C@@H]3CC[C@H]4C[C@@H](NC(=O)c5ccccc5)CC[C@]4(C)[C@H]3CC[C@]12C)N(C)C [EPIPACHYSAMINE D] | Active | 
3 | 6.22 |  | CC(=O)O[C@H]1C(NC(=O)c2ccccc2)=CC[C@]2(C)[C@H]3CC[C@]4(C)[C@@H]([C@H](C)N(C)C)CC[C@H]4[C@@H]3CC[C@@H]12 |  | Active
4 | 6.40 |  | CO[C@H]1CC[C@@]2(C)C(=CC[C@H]3[C@@H]4CC[C@H]([C@H](C)N(C)C)[C@@]4(C)CC[C@@H]32)C1 | Active | 
5 | 6.22 |  | CC(C)=CC(=O)N(C)[C@@H]1CC[C@@]2(C)[C@@H](CC[C@@H]3[C@@H]2CC[C@]2(C)[C@@H]([C@H](C)N(C)C)CC[C@@H]32)C1 [(+)-PACHYSAMINE B] |  | Active

Second part, the compound before the results:

Row | SMILES | pIC50 [2] | pIC50 (Ishikawa [3]) | Activity (Ishikawa [1]) | Activity (Ishikawa [4])
6 | CC/C(=C(\c1ccccc1)c1ccc(OCCN(C)C)cc1)c1ccccc1 [TAMOXIFEN] |  | 6.38 |  | 
7 | C[C@@H]([C@H]1CC[C@H]2[C@@H]3CC[C@H]4C[C@]5(CC[C@]4(C)[C@H]3CC[C@]12C)c1ccccc1C(=O)N5C)N(C)C | 5.13 |  | Active | 
8 | CC(C)[C@@H]1CN(C2=CC[C@@]3(C)[C@@H](CC[C@@H]4[C@@H]3CC[C@]3(C)[C@@H]([C@H](C)N(C)C)CC[C@@H]43)C2=O)C1=O |  |  | Active | 
9 | C[C@@H]([C@H]1CC[C@H]2[C@@H]3CC[C@H]4C(=O)C(NC(=O)c5ccccc5)=CC[C@]4(C)[C@H]3CC[C@]12C)N(C)C | 5.10 |  | Active | 
10 | CC(=O)O[C@H]1[C@@H](N2C(=O)c3ccccc3C2=O)[C@H](O)C[C@]2(C)[C@H]3CC[C@]4(C)[C@@H]([C@H](C)N(C)C)CC[C@H]4[C@@H]3CC[C@@H]12 |  |  | Active | 
